Experimental data reported in patent US12274684B2, “Treatment of vasculopathy with prostacyclin and mesenchymal stem cells” (United Therapeutics Corporation, priority 2013, dated 2025).
“And” between values parts separate entries of the source, which are not always exact repeats. Identical values can stand only once.

System: human bone marrow MSC
Test: Microarray gene expression analysis of MSC (Illumina Human HT12 Expression BeadChip)
Format: cell-based
Conditions: 24 h
Method: Human bone marrow MSC were expanded and seeded into six (6) T225 flasks using standard growth medium (Table 1). At 95-99% confluency, cells were thoroughly washed with PBS. Three (3) flasks were replenished with basal media containing 250 μg/mL treprostinil, (+)Tre, and the remaining three (3) flasks were replenished with unsupplemented basal media, (−)Tre. After 24 hours of culture, representative images were captured from (+) Tre and (−) Tre cultures. Conditioned media was collected from each replicate, divided into two samples of appropriate volumes, and analyzed separately for: 1) secreted proteins (Myriad RBM InflammationMAP® 1.0) and 2) exosome RNA content. Cells were lysed directly from culture flasks, processed for total RNA isolation, and analyzed for gene expression by microarray (Illumina Human HT12 Expression BeadChip). Microarray gene expression analysis was also performed on MSC from cultures without (−) or with (+) 250 ug/mL treprostinil. Three (3) biological replicates from each condition were analyzed. Of the 77,612 sequences identified among all replicates, only 24,273 were detected above the arbitrary background of 50 counts. 2,984 RNA sequences were unique to Tre(−) cultures, while 1,781 RNA sequences were unique to Tre(+) cultures (panel A). Genes detected in both conditions were further analyzed for differential expression (panel). […] Genes that are expressed only in Tre(−) cultures (that is to say, completely turned off in the Tre(+) cultures) are shown in Table 5.

CCCCC[C@H](O)CC[C@@H]1[C@H]2Cc3cccc(OCC(=O)O)c3C[C@H]2C[C@H]1O [treprostinil]
ACTN1 (NM_001130005) Fold Change, decrease in Tre(+) vs Tre(−) (250 μg/mL): 12.7 fold
ANGPT1 (NM_001146) Fold Change, decrease in Tre(+) vs Tre(−) (250 μg/mL): 14.6 fold
ANK3 (NM_001204403) Fold Change, decrease in Tre(+) vs Tre(−) (250 μg/mL): 14.2 fold
ANLN (NM_018685) Fold Change, decrease in Tre(+) vs Tre(−) (250 μg/mL): 11.7 fold
C11orf96 (NM_001145033) Fold Change, increase in Tre(+) vs Tre(−) (250 μg/mL): 12.0 fold
C13orf33 (NM_032849) Fold Change, increase in Tre(+) vs Tre(−) (250 μg/mL): 21.0 fold
CD55 (NM_000574) Fold Change, increase in Tre(+) vs Tre(−) (250 μg/mL): 21.5 fold
CD55 (NM_001114752) Fold Change, increase in Tre(+) vs Tre(−) (250 μg/mL): 13.2 fold
CELF1 (NM_001172640) Fold Change, decrease in Tre(+) vs Tre(−) (250 μg/mL): 10.9 fold
COL6A3 (NM_004369) Fold Change, decrease in Tre(+) vs Tre(−) (250 μg/mL): 11.7 fold
COL21A1 (NM_030820) Fold Change, decrease in Tre(+) vs Tre(−) (250 μg/mL): 27.4 fold
CPA4 (NM_016352) Fold Change, decrease in Tre(+) vs Tre(−) (250 μg/mL): 12.0 fold
CTGF (NM_001901) Fold Change, decrease in Tre(+) vs Tre(−) (250 μg/mL): 31.1 fold
CXCL12 (NM_199168) Fold Change, decrease in Tre(+) vs Tre(−) (250 μg/mL): 15.8 fold
DDAH1 (NM_001134445) Fold Change, decrease in Tre(+) vs Tre(−) (250 μg/mL): 12.7 fold
DKFZp547J0510 (CDNA FLJ42650 fis, clone BRACE3027478) Fold Change, decrease in Tre(+) vs Tre(−) (250 μg/mL): 13.0 fold
DUSP1 (NM_004417) Fold Change, increase in Tre(+) vs Tre(−) (250 μg/mL): 12.9 fold
EPB41L2 (NM_001199389) Fold Change, decrease in Tre(+) vs Tre(−) (250 μg/mL): 11.2 fold
GDF5 (NM_000557) Fold Change, decrease in Tre(+) vs Tre(−) (250 μg/mL): 12.5 fold
GDF15 (NM_004864) Fold Change, increase in Tre(+) vs Tre(−) (250 μg/mL): 32.1 fold
GPRC5A (NM_003979) Fold Change, increase in Tre(+) vs Tre(−) (250 μg/mL): 13.2 fold
HSD11B1 (NM_005525) Fold Change, increase in Tre(+) vs Tre(−) (250 μg/mL): 15.4 fold
IDH1 (NM_005896) Fold Change, increase in Tre(+) vs Tre(−) (250 μg/mL): 13.1 fold
IER3 (NM_003897) Fold Change, increase in Tre(+) vs Tre(−) (250 μg/mL): 22.5 fold
IGFBP1 (NM_000596) Fold Change, increase in Tre(+) vs Tre(−) (250 μg/mL): 118.2 fold
IL6 (NM_000600) Fold Change, increase in Tre(+) vs Tre(−) (250 μg/mL): 109.5 fold
ISLR (NM_005545) Fold Change, decrease in Tre(+) vs Tre(−) (250 μg/mL): 10.1 fold
LIPG (NM_006033) Fold Change, increase in Tre(+) vs Tre(−) (250 μg/mL): 13.2 fold
LMOD1 (NM_012134) Fold Change, decrease in Tre(+) vs Tre(−) (250 μg/mL): 26.4 fold
MEST (NM_002402) Fold Change, decrease in Tre(+) vs Tre(−) (250 μg/mL): 15.1 fold
MEST (NM_177525) Fold Change, decrease in Tre(+) vs Tre(−) (250 μg/mL): 11.9 fold
METTL7A (NM_014033) Fold Change, decrease in Tre(+) vs Tre(−) (250 μg/mL): 11.9 fold
MXRA5 (NM_015419) Fold Change, decrease in Tre(+) vs Tre(−) (250 μg/mL): 32.6 fold
NR4A2 (NM_006186) Fold Change, increase in Tre(+) vs Tre(−) (250 μg/mL): 12.5 fold
OLFML1 (NM_198474) Fold Change, decrease in Tre(+) vs Tre(−) (250 μg/mL): 12.4 fold
OLFML2B (NM_015441) Fold Change, decrease in Tre(+) vs Tre(−) (250 μg/mL): 20.8 fold
PALLD (NM_001166109) Fold Change, decrease in Tre(+) vs Tre(−) (250 μg/mL): 13.0 fold
PALLD (NM_001166110) Fold Change, increase in Tre(+) vs Tre(−) (250 μg/mL): 13.3 fold
PDE5A (NM_033430) Fold Change, decrease in Tre(+) vs Tre(−) (250 μg/mL): 15.2 fold
PITPNC1 (NM_181671) Fold Change, increase in Tre(+) vs Tre(−) (250 μg/mL): 16.0 fold
PLIN2 (NM_001122) Fold Change, increase in Tre(+) vs Tre(−) (250 μg/mL): 47.0 fold
PRELP (NM_002725) Fold Change, decrease in Tre(+) vs Tre(−) (250 μg/mL): 12.9 fold
PRKAG2 (NM_024429) Fold Change, increase in Tre(+) vs Tre(−) (250 μg/mL): 78.6 fold
PTP4A1 (NM_003463) Fold Change, increase in Tre(+) vs Tre(−) (250 μg/mL): 11.8 fold
RCAN1 (NM_203418) Fold Change, increase in Tre(+) vs Tre(−) (250 μg/mL): 10.9 fold
RCAN2 (NM_001251974) Fold Change, decrease in Tre(+) vs Tre(−) (250 μg/mL): 11.6 fold
RND3 (NM_005168) Fold Change, increase in Tre(+) vs Tre(−) (250 μg/mL): 12.9 fold
S100A4 (NM_002961) Fold Change, decrease in Tre(+) vs Tre(−) (250 μg/mL): 10.5 fold
SAT1 (transcript variant 2, non-coding RNA) Fold Change, increase in Tre(+) vs Tre(−) (250 μg/mL): 13.5 fold
SCG2 (NM_003469) Fold Change, increase in Tre(+) vs Tre(−) (250 μg/mL): 21.3 fold
SIK1 (NM_173354) Fold Change, increase in Tre(+) vs Tre(−) (250 μg/mL): 20.3 fold
SLC2A12 (NM_145176) Fold Change, decrease in Tre(+) vs Tre(−) (250 μg/mL): 12.2 fold
SLC3A2 (NM_001013251) Fold Change, increase in Tre(+) vs Tre(−) (250 μg/mL): 10.5 fold
SLC6A15 (NM_182767) Fold Change, increase in Tre(+) vs Tre(−) (250 μg/mL): 23.7 fold
SLC14A1 (NM_015865) Fold Change, decrease in Tre(+) vs Tre(−) (250 μg/mL): 18.5 fold
SREBF1 (NM_004176) Fold Change, increase in Tre(+) vs Tre(−) (250 μg/mL): 11.5 fold
SYNPO2 (NM_001128933) Fold Change, decrease in Tre(+) vs Tre(−) (250 μg/mL): 24.6 fold
VEGFA (NM_001025370) Fold Change, increase in Tre(+) vs Tre(−) (250 μg/mL): 13.5 fold
VEGFA (NM_001171626) Fold Change, increase in Tre(+) vs Tre(−) (250 μg/mL): 11.5 fold
ANGPTL4 (NM_139314) expression, Rep 1-3 (Tre(+) 250 μg/mL): 1570 counts and 2337 counts and 1371 counts
ANLN (NM_018685) expression, Rep 1-3 (Tre(+) 250 μg/mL): 67 counts and 68 counts and 37 counts
